Assay results: article PMC4985751, “Enhanced Cationic Charge is a Key Factor in Promoting Staphylocidal Activity of α-Melanocyte Stimulating Hormone via Selective Lipid Affinity” (Scientific Reports, 2016)

What was measured:
[1] = system: 3T3 murine fibroblast cell line; assay type: cell-based, mouse
Method: The cytotoxicity of α-MSH and analogues was tested against 3T3 murine fibroblast cell line using a protocol as described previously. The cell line was propagated at 37 °C in 5% CO2 to over 75% confluence in DMEM supplemented with 10% fetal bovine serum (FBS) and antibiotics and transferred (after treatment with trypsin) to each well of a 24-well plate to a final count of 0.2 × 10^5 cells/well for 24 h. After 24 h, media was aspirated and desired concentration of peptides (50 μM) dissolved in 25% (v/v) DMEM in PBS was added to each well (in triplicate). Triplicate wells without treatment were set as control and wells with 2% Triton X-100 were used as positive control. The plate was kept for 2 h, at 37 °C in 5% CO2 incubator. After 2 h, media was removed and the cells were washed once with 1 mL PBS. In dark, 1 mL MTT (working conc. 0.1 mg/mL) was added to each well and incubated for 2 h at 37 °C. After 2 h, the formazan crystals formed were dissolved in 200 μL of DMSO and kept for 5 min in the incubator. 150 μL of this mixture was transferred to a fresh 96-well plate and absorbance was measured spectrophotometrically at 570 nm. % cytotoxicity was calculated as [(OD570 of control-OD570 of sample)/(OD570 of control)] × 100. The assay was done in triplicate on three different days.

[2] = system: MSSA ATCC 29213; assay: Membrane permeabilization, PI uptake by flow cytometry; assay type: cell-based, Staphylococcus aureus; conditions: 10 μM peptide, 1 h, 37 °C, 10^5 CFU/mL in PBS pH 7.4; >10 a.u. counted positive; mean ± S.D. of three independent experiments
Method: The propidium iodide (PI) uptake assay was performed to assess membrane permeabilization by flow cytometry according to a method described elsewhere[58]. MSSA ATCC 29213 cells were grown in BHI broth to mid-logarithmic phase and harvested by centrifugation at 4,000 rpm for 10 min. The cell pellet was washed once with PBS (10 mM sodium phosphate, 150 mM NaCl, pH 7.4) and was adjusted to 10^5 CFU/mL in PBS. The cells were incubated with PI (1.3 μg/mL) at 37 °C for 20 min in the dark. After incubating the cells with PI, cells were exposed to peptides (10 μM) at 37 °C. PI fluorescence was measured after 1 h incubation with excitation and emission wavelength of 544 nm and 620 nm, respectively, using Becton Dickinson (BD) FACS verse, San Jose, CA. The cells having more than 10 fluorescence unit (arbitrary) were considered to be stained with PI.

[3] = system: MSSA ATCC 29213; assay: 2 h killing assay (colony count), MSSA; assay type: cell-based, Staphylococcus aureus; conditions: 10 μM peptide, 37 °C, 10^7 CFU/mL MSSA ATCC 29213, 5 mM HEPES, 20 mM glucose, pH 7.4, mean ± S.D. of three independent experiments
Method: (§1) To determine the antibacterial activity, cells (MSSA ATCC 29213 and MRSA ATCC 33591) from secondary culture mid-logarithmic phase were used. The cells were centrifuged, washed and re-suspended in buffer (5 mM HEPES, 20 mM glucose, pH 7.4). The re-suspended cells were adjusted to OD600 of 0.5 spectrophotometrically (~10^8 CFU/mL). Desired cell densities were then exposed to 10 μM concentration of α-MSH and other analogues and incubated at 37 °C for 2 h. After 2 h incubation, the cells were diluted in buffer and small aliquots were plated on BHI agar plates. The plates were incubated overnight at 37 °C. Survival was determined by counting of the colony forming unit (CFU/mL) on agar plate using the following formula[23]: […]

[4] = system: MRSA ATCC 33591; assay: 2 h killing assay (colony count), MRSA; assay type: cell-based, Staphylococcus aureus; conditions: 10 μM peptide, 37 °C, 10^6 CFU/mL MRSA ATCC 33591, 5 mM HEPES, 20 mM glucose, pH 7.4, mean ± S.D. of three independent experiments
Method: as §1

[5] = Lipid binding by Trp fluorescence titration
Method: Further, we evaluated the relative binding constants of α-MSH and KKK-MSH to bacterial mimic SUVs to understand if there are differences between lipid binding affinities of these two peptides. Towards this, we incubated a fixed concentration of peptide (12.5 μM) with increasing concentrations of bacterial mimic SUVs (DMPC:DMPG, 7:3, w/w) and concomitant changes in the intensity of emission maxima for Trp residue were recorded. Correction for light scattering was done by subtracting the corresponding spectra of the SUVs alone. […]
Figure 7 Trp fluorescence studies to estimate binding of α-MSH and KKK-MSH to bacterial mimic SUVs. Increasing concentrations of DMPC:DMPG (7:3, w/w) SUVs in 10 mM TES buffer (pH 7.2) were titrated with fixed peptide concentration (12.5 μM) and the emission spectrum was recorded. […] The fluorescence spectrum was recorded at 25 °C by exciting samples at 295 nm and recording emission from 310 nm to 450 nm. […] Contributions from the buffer and SUVs were appropriately subtracted and volume corrected fluorescence values were used to calculate the fraction of bound peptide.
Lipid binding was measured by titrating SUVs (DMPC:DMPG, 7:3, w/w) into 12.5 μM of the peptide by varying lipid to peptide ratio from 75.6 to 3.3. After each addition of lipid, emission spectrum was recorded between 310 to 450 nm using excitation at 295 nm with excitation and emission slit width of 3 nm. […]

[6] = RP-HPLC elution, % hydrophobicity; assay type: physicochemical; conditions: chromatographic, C18 column
Excerpt: A balance between hydrophobicity and cationic charge has been reported to be crucial for the activity of many membrane active CAMPs[39][40][41]. […] For α-MSH it has been shown that the minimum energy conformation is a β-turn which is present in the middle of the sequence spanning the putative message region (residues 6–9)[42]. […] Although, acquisition of secondary structure in the vicinity of phospholipid bilayers has been reported to be crucial for activity, there are examples where no direct correlation between peptide structure acquisition ability and antibacterial activity was observed.

[7] = system: MSSA ATCC 29213; assay type: cell-based, Staphylococcus aureus; conditions: at 10.47 μM peptide; thereafter marginal increase up to 41.2 μM
Method: The cytoplasmic membrane depolarization was measured using membrane potential sensitive cyanine dye DiSC3(5)[57]. Briefly, mid-logarithmic phase MSSA ATCC 29213 cells were washed and re-suspended in buffer (5 mM HEPES, 20 mM glucose, pH 7.2) to an OD600 of 0.05 which corresponds to ~10^7 CFU/mL. Cells were divided into aliquots and incubated with 2 μM of DiSC3(5) for 1 h to get steady baseline fluorescence intensity. The dye-loaded cells were treated with increasing peptide concentrations (2.1 μM, 10.47 μM, 20.83 μM and 41.23 μM). Fluorescence was monitored in a Shimadzu RF-5301 PC spectrofluorimeter at an excitation wavelength of 622 nm and an emission wavelength of 670 nm. The corresponding killing was measured by plating the aliquots onto BHI agar plate to obtain viable bacterial counts.

[8] = system: B16 mouse melanoma cells stably expressing human melanocortin receptor MC1R; assay: Cyclic-AMP accumulation analysis; assay type: cell-based; conditions: 600 nM, 1 μM and 10 μM peptide, 10 min
Method: The intracellular cyclic-AMP analysis was performed according to a method described elsewhere, with slight modifications. Briefly, B16 mouse melanoma cells stably expressing human melanocortin receptor MC1R were grown to confluence in DMEM medium (Sigma-Aldrich, USA) containing 10% fetal calf serum (FCS) and 1x anti-anti (Gibco). The cells were seeded in 12-well plates 48 h before assay and grown to 10^5 cells/well. For the assay, the medium was removed and cells were washed with 1 mL of media. Then 1 mL DMEM media (without FCS) containing 100 μM 3-isobutyl-1-methylxanthine (IBMX) was added to each well and incubated for 30 min at 37 °C. The media was then discarded and various concentrations of α-MSH and KKK-MSH viz., 600 nM, 1 μM and 10 μM, in 1 mL fresh 25% DMEM media (without FCS) in PBS containing 100 μM IBMX were added to the appropriate wells and incubated for 10 min at 37 °C, 5% CO2. After 10 min the reaction was stopped by aspirating the media and washing the wells with 1 mL PBS. 200 μL 0.1 M hydrochloric acid was then added to each well and the wells were scrapped. The lysates were centrifuged at 600 rcf for 5 min and the supernatants were collected and diluted 1000 times in 0.1 M HCl and used for analysis of the total cyclic-AMP content using Enzyme Immunoassay Kit (Sigma-Aldrich, USA, CA200) according to the manufacturer’s instructions.

**Q.** Which “Cytotoxicity relative to growth control” value [1] does the source give for Triton X-100 here?
**A.** 83%

**Q.** With Ac-KYKMKHFRWGKPV-NH2 [KKK-MSH] as the substance, how does the “Cells retaining PI (PI positive cells)” value [2] read?
**A.** 67.6 ± 3.4%

**Q.** And the “Reduction in initial cell count” value [3]?
**A.** 4.07 ± 0.92 Log10 CFU/mL

**Q.** What about the “Reduction in initial cell count” value [4] of the same substance?
**A.** 3.81 ± 0.33 Log10 CFU/mL

**Q.** What about the “Binding constant to bacterial mimic SUVs” value ([5]; 12.5 μM peptide titrated with DMPC:DMPG (7:3, w/w) SUVs, L:P 75.6 to 3.3, 10 mM TES pH 7.2, 25 °C, hyperbolic fit, one site model) of the same substance?
**A.** 15,402.74 M^−1

**Q.** And the “Binding constant relative to α-MSH” value ([5]; DMPC:DMPG (7:3, w/w) SUVs, steady-state fluorescence)?
**A.** ~ 18 fold

**Q.** And the “% H (% hydrophobicity based on % of acetonitrile at RP-HPLC elution)” value [6]?
**A.** 39.9%

**Q.** And the “Membrane depolarization, relative fluorescence intensity (RFI) of DiSC3(5)” value [7]?
**A.** appreciable increase in RFI

**Q.** And the “Cyclic-AMP levels compared to untreated control” value ([8]; 37 °C, 100 μM IBMX, enzyme immunoassay, p < 0.05)?
**A.** dose-dependent elevation in cyclic-AMP

**Q.** And the “Cyclic-AMP levels compared to α-MSH” value ([8]; comparable at higher, lower at lower concentration)?
**A.** comparable or lower levels of cyclic-AMP
